US8236792B2, “Substituted pyrrolidine amides as modulators of the histamine H3 receptor” (Janssen Pharmaceutica NV, priority 2008, dated 2012)
pKi: −log10 of the molar value.

These molecules were tested against T1, cloned human H3 receptors (Homo sapiens, UniProt Q9Y5N1) (assay: H3 Receptor Binding (Human) Method 1). Conditions: receptor stably expressed in SK-N-MC cells, free base forms, average of results.
T1 construct: expressed in transfected cells
T1 sequence (Q9Y5N1 whole entry): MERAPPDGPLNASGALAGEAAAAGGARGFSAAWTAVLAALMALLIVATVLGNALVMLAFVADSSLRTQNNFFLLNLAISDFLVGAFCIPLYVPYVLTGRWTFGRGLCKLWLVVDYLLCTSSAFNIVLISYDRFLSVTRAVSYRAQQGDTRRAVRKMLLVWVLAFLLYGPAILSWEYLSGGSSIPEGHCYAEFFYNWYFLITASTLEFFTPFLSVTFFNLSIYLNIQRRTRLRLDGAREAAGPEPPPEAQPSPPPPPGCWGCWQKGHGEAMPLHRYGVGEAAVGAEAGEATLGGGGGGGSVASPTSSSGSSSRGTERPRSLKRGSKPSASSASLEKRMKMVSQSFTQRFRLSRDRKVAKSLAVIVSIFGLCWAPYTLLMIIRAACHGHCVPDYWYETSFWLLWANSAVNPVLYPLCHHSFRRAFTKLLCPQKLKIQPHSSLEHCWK

Structure (SMILES) | pKi
CC(C)(C)OC(=O)N1CC(Oc2cccc(F)c2)C[C@H]1C(=O)N1CCCN(C2CCC2)CC1 (mixture of isomers) [Example 41, (2S)-2-(4-Cyclobutyl-[1,4]diazepane-1-carbonyl)-4-(3-fluoro-phenoxy)-pyrrolidine-1-carboxylic acid tert-butyl ester] | 7.74
CC(C)(C)OC(=O)N1C[C@H](O)C[C@H]1C(=O)N1CCCN(C2CCC2)CC1 [Example 1, (2S,4R)-2-(4-Cyclobutyl-[1,4]diazepane-1-carbonyl)-4-hydroxy-pyrrolidine-1-carboxylic acid tert-butyl Ester] | 7.15
CC(C)(C)OC(=O)N1C[C@H](O)C[C@H]1C(=O)N1CCN(C2CCC2)CC1 [Example 2, (2S,4R)-2-(4-Cyclobutyl-piperazine-1-carbonyl)-4-hydroxy-pyrrolidine-1-carboxylic acid tert-butyl Ester] | < 5.00
CC(C)(C)OC(=O)N1C[C@@H](Oc2ccc(F)cc2)C[C@H]1C(=O)N1CCCN(C2CCC2)CC1 [Example 11, (2S,4S)-2-(4-Cyclobutyl-[1,4]diazepane-1-carbonyl)-4-(4-fluoro-phenoxy)-pyrrolidine-1-carboxylic acid tert-butyl ester] | 7.43
CC(C)(C)OC(=O)N1C[C@@H](Oc2ccc(F)cc2)C[C@H]1C(=O)N1CCN(C2CCC2)CC1 [Example 12, (2S,4S)-2-(4-Cyclobutyl-piperazine-1-carbonyl)-4-(4-fluoro-phenoxy)-pyrrolidine-1-carboxylic acid tert-butyl ester] | < 5.82
CC(C)(C)OC(=O)N1C[C@H](Oc2ccc(F)cc2)C[C@H]1C(=O)N1CCCN(C2CCC2)CC1 [Example 15, (2S,4R)-2-(4-Cyclobutyl-[1,4]diazepane-1-carbonyl)-4-(4-fluoro-phenoxy)-pyrrolidine-1-carboxylic acid tert-butyl ester] | 7.60
CC(C)(C)OC(=O)N1C[C@@H](Oc2ccc(F)cc2)C[C@@H]1C(=O)N1CCCN(C2CCC2)CC1 [Example 18, (2R,4S)-2-(4-Cyclobutyl-[1,4]diazepane-1-carbonyl)-4-(4-fluoro-phenoxy)-pyrrolidine-1-carboxylic acid tert-butyl ester] | 8.30
CC(C)(C)OC(=O)N1C[C@@H](Oc2cccc(C#N)c2)C[C@@H]1C(=O)N1CCCN(C2CCC2)CC1 [Example 22, (2R,4S)-4-(3-Cyano-phenoxy)-2-(4-cyclobutyl-[1,4]diazepane-1-carbonyl)-pyrrolidine-1-carboxylic acid tert-butyl ester] | 8.52
CC(C)(C)OC(=O)N1CC(Oc2cccc(Cl)c2)C[C@H]1C(=O)N1CCCN(C2CCC2)CC1 (stereo partly drawn) [Example 42, (2S)-4-(3-Chloro-phenoxy)-2-(4-cyclobutyl-[1,4]diazepane-1-carbonyl)-pyrrolidine-1-carboxylic acid tert-butyl ester] | 7.62
CC(C)(C)OC(=O)N1CC(Oc2ccc(Cl)cc2)C[C@H]1C(=O)N1CCCN(C2CCC2)CC1 (stereo partly drawn) [Example 43, (2S)-4-(4-Chloro-phenoxy)-2-(4-cyclobutyl-[1,4]diazepane-1-carbonyl)-pyrrolidine-1-carboxylic acid tert-butyl ester] | 7.48
CC(C)(C)OC(=O)N1CC(Oc2ccc(Cl)c(Cl)c2)C[C@H]1C(=O)N1CCCN(C2CCC2)CC1 (stereo partly drawn) [Example 44, (2S)-2-(4-Cyclobutyl-[1,4]diazepane-1-carbonyl)-4-(3,4-dichloro-phenoxy)-pyrrolidine-1-carboxylic acid tert-butyl ester] | 7.28
CC(C)(C)OC(=O)N1CC(Oc2ccc(C#N)cc2)C[C@H]1C(=O)N1CCCN(C2CCC2)CC1 (stereo partly drawn) [Example 45, (2S)-4-(4-Cyano-phenoxy)-2-(4-cyclobutyl-[1,4]diazepane-1-carbonyl)-pyrrolidine-1-carboxylic acid tert-butyl ester] | 8.10
CSc1ccc(OC2C[C@@H](C(=O)N3CCCN(C4CCC4)CC3)N(C(=O)OC(C)(C)C)C2)cc1 (stereo partly drawn) [Example 46, (2S)-2-(4-Cyclobutyl-[1,4]diazepane-1-carbonyl)-4-(4-methylsulfanyl-phenoxy)-pyrrolidine-1-carboxylic acid tert-butyl ester] | 7.46
CC(C)(C)OC(=O)N1CC(Oc2ccccc2)C[C@H]1C(=O)N1CCCN(C2CCC2)CC1 (stereo partly drawn) [Example 47, (2S)-2-(4-Cyclobutyl-[1,4]diazepane-1-carbonyl)-4-phenoxy-pyrrolidine-1-carboxylic acid tert-butyl ester] | 7.30
CC(C)O[C@@H]1C[C@@H](C(=O)N2CCCN(C3CCC3)CC2)N(C(=O)OC(C)(C)C)C1 [Example 59, (2S,4R)-2-(4-Cyclobutyl-[1,4]diazepane-1-carbonyl)-4-isopropoxy-pyrrolidine-1-carboxylic acid tert-butyl ester] | 7.80
O=C([C@@H]1C[C@H](Oc2ccc(F)cc2)CN1)N1CCN(C2CCC2)CC1 [Example 63, (2S,4S)-2-(4-Cyclobutyl-piperazine-1-carbonyl)-4-(4-fluoro-phenoxy)-pyrrolidine] | 6.55
O=C([C@@H]1C[C@@H](Oc2ccc(Cl)c(Cl)c2)CN1)N1CCCN(C2CCC2)CC1 [Example 92, (2S,4R)-2-(4-Cyclobutyl-[1,4]diazepane-1-carbonyl)-4-(3,4-dichloro-phenoxy)-pyrrolidine] | 7.29
O=C([C@@H]1C[C@H](Oc2ccc(Cl)c(Cl)c2)CN1)N1CCCN(C2CCC2)CC1 [Example 93, (2S,4S)-2-(4-Cyclobutyl-[1,4]diazepane-1-carbonyl)-4-(3,4-dichloro-phenoxy)-pyrrolidine] | 7.06
CSc1ccc(O[C@@H]2CN[C@H](C(=O)N3CCCN(C4CCC4)CC3)C2)cc1 [Example 97, (2S,4S)-2-(4-Cyclobutyl-[1,4]diazepane-1-carbonyl)-4-(4-methylsulfanyl-phenoxy)-pyrrolidine] | 7.05
CN1C[C@@H](Oc2ccc(F)cc2)C[C@H]1C(=O)N1CCN(C2CCC2)CC1 [Example 107, (2S,4S)-1-Methyl-2-(4-cyclobutyl-piperazine-1-carbonyl)-4-(4-fluoro-phenoxy)-pyrrolidine] | 6.28
CCC(=O)N1C[C@@H](Oc2ccc(F)cc2)C[C@H]1C(=O)N1CCCN(C2CCC2)CC1 [Example 116, (2S,4S)-1-[2-(4-Cyclobutyl-[1,4]diazepane-1-carbonyl)-4-(4-fluoro-phenoxy)-pyrrolidin-1-yl]-propan-1-one] | 6.82
CC(C)C(=O)N1C[C@@H](Oc2ccc(F)cc2)C[C@H]1C(=O)N1CCCN(C2CCC2)CC1 [Example 117, (2S,4S)-1-[2-(4-Cyclobutyl-[1,4]diazepane-1-carbonyl)-4-(4-fluoro-phenoxy)pyrrolidin-1-yl]-2-methyl-propan-1-one] | 6.10
CC(C)(C)CC(=O)N1C[C@@H](Oc2ccc(F)cc2)C[C@H]1C(=O)N1CCCN(C2CCC2)CC1 [Example 118, (2S,4S)-1-[2-(4-Cyclobutyl-[1,4]diazepane-1-carbonyl)-4-(4-fluoro-phenoxy)-pyrrolidin-1-yl]-3,3-dimethyl-butan-1-one] | 6.09

What follows are molecules tested against human H3 receptor (Homo sapiens, UniProt Q9Y5N1) (assay: H3 Receptor Binding (Human) Method 2, [125I]-iodoproxyfan competitive radioligand binding). Conditions: read-out: Human H3 Ki.
human H3 receptor, sequence (Q9Y5N1 whole entry): as above
Set-up: expressed in transfected cells
Procedure: SK-N-MC cells expressing the human H3 receptor were grown to confluence and tissue culture plates, washed with phosphate-buffered saline, and scraped into 50 mL tubes. After centrifugation, the supernatant was aspirated, and the pellets frozen and stored at −80° C. […] The homogenate was centrifuged at 25000×g for 25 min. […] Reactions were stopped by filtration through GF/B filter plates pre-soaked in 0.3% polyethylenimine and subsequently washed with Tris 50 mM, 5 mM EDTA buffer. Plates were dried for 1 h in a 55° C. oven. Scintillation fluid was added and the radioactivity was counted in a Packard TopCount. Non-specific binding to the H3 receptor was defined by radioactivity that was bound in the presence of 100 μM histamine.
Compounds were tested in their free base or hydrochloride salt forms.

Structure (SMILES) | pKi
CC(=O)N1C[C@H](Cc2ccc(F)cc2)C[C@H]1C(=O)N1CCCN(C2CCC2)CC1 [Example 181] | 5.68
CC(=O)N1C[C@H](Cc2cccc(F)c2)C[C@H]1C(=O)N1CCCN(C2CCC2)CC1 [Example 182] | 5.93
CC(=O)N1C[C@H](Cc2ccsc2)C[C@H]1C(=O)N1CCCN(C2CCC2)CC1 [Example 183] | 6.69
